Entries after “also recorded” stand apart in the source; their conditions may differ. Like-named read-outs stand apart in the source and are kept apart here. Residues, ends and D or L forms follow the SMILES beside them.
Tests used:
[1] = biological target: T1, human isolated umbilical vein (BK B2R; histamine H1R) (Homo sapiens, UniProt P30411)
T1 sequence (P30411 1-391): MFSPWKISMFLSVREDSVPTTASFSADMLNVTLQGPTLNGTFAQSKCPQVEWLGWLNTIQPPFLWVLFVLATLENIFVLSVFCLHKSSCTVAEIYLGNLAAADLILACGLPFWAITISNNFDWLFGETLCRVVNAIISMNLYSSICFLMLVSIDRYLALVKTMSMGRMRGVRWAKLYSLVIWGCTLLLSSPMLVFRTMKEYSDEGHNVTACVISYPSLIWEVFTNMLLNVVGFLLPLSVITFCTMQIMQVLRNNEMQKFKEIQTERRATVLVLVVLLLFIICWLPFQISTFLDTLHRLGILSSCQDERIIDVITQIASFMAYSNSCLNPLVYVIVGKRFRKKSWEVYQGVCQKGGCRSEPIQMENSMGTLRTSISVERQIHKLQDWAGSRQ
Source text: The institutional research ethics board (CHU de Québec) approved the anonymous use of human umbilical cord segments obtained after elective cesarean section deliveries (file number: 2012-323). Informed written consent was obtained from mothers.
(§1) Results are presented as means ± s.e.m. Radioligand binding data were fitted by nonlinear regression to a one-site competition equation using a least-square method (Prism 5.0; GraphPad Software Inc., San Diego, CA, USA) and IC50 values calculated from this procedure. The same computer program was used to draw concentration-effect curves (least square fitting of sigmoidal dose–response equation with variable slope) and to derive contractile EC50 values. Data describing baseline values of heart rate and mean arterial blood pressure and hypotensive responses to peptides in anesthetized rats were assessed by using one-way analysis of variance (ANOVA) followed by the Dunnett’s test (repeated comparison with a common control). The effects of drugs on the hypotensive responses to each dose of MK were assessed by using ANOVA followed by the Dunnett’s test.

[2] = LC-MS of MK incubated with human umbilical vein ring; assay type: in vitro ADME; details: 37 °C; for fragment generated from MK: MK 1 µM in Krebs with umbilical vein ring, 5 or 15 min, LC-MS, duplicate; for increase of fragment ion intensity on reaction with tissue: vs. contaminant in commercial MK, MK 1 µM
Procedure: Synthetic MK (1 µM) was submitted to digestion in 2 ml of sterile-filtered Krebs solution in the presence of a freshly prepared ring of human umbilical vein (wet weight 25–37 mg). The tubes containing these materials were incubated at 37 °C for 5 or 15 min; the tissues were then removed and five volumes of cold ethanol (10 ml) were added to each tube. The tubes were incubated for 1 h on ice, centrifuged at 10,000 g to remove precipitated proteins and the kinin-containing supernatants were collected (procedure previously validated, [Raymond et al., 1995]). The supernatants were then completely evaporated to dryness in a Speedvac system and reconstituted in a small volume of water. Peptides were desalted on stage tip (C18), vacuum dried and then resuspended into 0.1% formic acid. One hundred fmol of each sample (starting MK quantity) was analyzed by mass spectrometry.
Mass spectrometry: peptide samples were separated by online reversed-phase (RP) nanoscale capillary liquid chromatography (nanoLC) and analyzed by electrospray mass spectrometry (ES MS/MS). The experiments were performed with a Ekspert NanoLC425 (Eksigent) coupled to a 5600+ mass spectrometer (AB Sciex, Framingham, MA, USA) equipped with a nanoelectrospray ion source. Peptide separation took place on a picofrit column (Reprosil 3u, 120A C18, 15 cm × 0.075 mm internal diameter). Peptides were eluted with a linear gradient from 5–35% solvent B (acetonitrile, 0.1% formic acid) in 35 min, at 300 nL/min. Mass spectra were acquired using a data dependent acquisition mode using Analyst software version 1.7. […] Dynamic exclusion was set for a period of 3 s and a tolerance of 100 ppm
Database searching: MGF peak list files were created using Protein Pilot version 5.0 software (Sciex) utilizing the Paragon and Progroup algorithms. MGF sample files were then analyzed using Mascot (Matrix Science, London, UK; version 2.5.1).
Mascot was set up to search the MK sequence assuming that the digestion enzyme was non-specific. Mascot was searched with a fragment ion mass tolerance of 0.100 Da and a parent ion tolerance of 0.100 Da. Deamidation of asparagine and glutamine and oxidation of methionine were specified in Mascot as variable modifications. Scaffold (version Scaffold_4.7.1; Proteome Software Inc., Portland, OR, USA) was used to validate MS/MS based peptide and protein identifications.
Data processing: Peak View 1.2.0.1 (Sciex) was used to extract the specific precursor masses and calculate the area under the curve. Extracted ion chromatoram (XIC) were generated from the TOF MS using a peak width of 0.05.

male Sprague-Dawley rats = details: for Basal mean arterial blood pressure after pre-treatment / Basal heart rate after pre-treatment: 15 min after i.v., enalaprilat 0.1 mg/kg n=6, icatibant 25 µg/kg n=6, pyrilamine 5 mg/kg n=16, means ± s.e.m.; for Basal mean arterial blood pressure after pre-treatment: control 96.5 ± 2.5; for Basal heart rate after pre-treatment: control 351 ± 10, * P < 0.01 vs control; for effect of pretreatment on hypotensive effect of MK: enalaprilat 0.1 mg/kg, icatibant 25 µg/kg, 15 min before MK
Procedure: All surgical and experimental procedures were reviewed and approved by the Animal Care and Handling Committee of Laval University, in accordance with the Canadian Council on Animal Care (file no. 2012-223). Experiments were performed on male Sprague-Dawley rats (300–375 g) purchased from Charles River Laboratories (St-Constant, Qc, Canada). Only animals of the male gender have been studied to be consistent with related and recently published data ([Jean et al., 2016a]). The rats were housed in a temperature-controlled room (22 ± 1 °C) on a 12 h/12 h light-dark cycle (lights on at 0600) and had free access to normal chow diet and tap water. They were allowed to acclimate to their environmental conditions for one week prior to being studied. At the end of the acclimation period, the rats were anesthetised with sodium pentobarbital (50 mg kg^−1, i.p., supplemented as required) and had one catheter implanted into the right jugular vein (for intravenous ( i.v.) injection) and one into the left femoral artery (for direct and continuous measurement of blood pressure and heart rate as previously described, [Jean et al., 2016a]). In some experiments, a miniaturized pulsed Doppler flow probe ([Haywood et al., 1981]) was implanted around the distal abdominal aorta (below the level of the ileocaecal artery) through a midline abdominal incision to monitor changes in hindquarter hemodynamic, according to the method previously developed by [Gardiner & Bennett (1988)] and as previously described ([Bachelard et al., 1992]; [Jean et al., 2016a]). Experiments started at least 30 min following the end of surgery in anesthetised rats.
Baseline heart rate and phasic and mean arterial blood pressure were recorded over a period of 15 min in anesthetized rats. […] Peptides were dissolved in isotonic saline (0.9% NaCl) containing 0.1% BSA to prevent the adsorption of peptide to the glassware and plastic surfaces. All i.v. injections were given as 100 µl boluses which were washed in with a further 100 µl of saline (the dead space of the catheter). Only one peptide was tested per group of rats and each injection started with saline-BSA 0.1% followed by the lowest dose of peptide. The next dose was administered once all recorded cardiovascular parameters had returned to baseline after the previous injection (usually 2–10 min). At the end of the experiments each animal was euthanized with an overdose of sodium pentobarbital (240 mg/kg, i.v.).
In these experiments, enalaprilat was intravenously administered as bolus (0.1 mg/kg, 0.1 ml) following a 10 min period of baseline measurements of heart rate and blood pressure. Fifteen minutes later, a dose–response curve to MK was obtained, as described above. […] In these experiments, icatibant was intravenously administered as bolus (25 µg/kg, 0.1 ml) 15 min before the i.v. injection of increasing doses of MK, as above. […] In these experiments, pyrilamine was intravenously administered as bolus (5 mg/kg, 0.1 ml) 15 min before the i.v. injection of increasing doses of MK, as above.
as §1, with “control).” for “control). The effects of drugs on the hypotensive responses to each dose of MK were assessed by using ANOVA followed by the Dunnett’s test.”

Compound: CC(C)C[C@H](NC(=O)[C@H]1O[C@@H]1C(=O)O)C(=O)NCCCCN=C(N)N [E-64]
- effect of protease/peptidase inhibitor on contractile potency of MK ([1]; inhibitor 30 min before MK): failed to change the concentration-effect curve of MK

Compound: O=C([O-])CN(CCN(CC(=O)[O-])CC(=O)[O-])CC(=O)[O-].[Ca+2].[Na+].[Na+] [EDTA calcium disodium]
- effect of protease/peptidase inhibitor on contractile potency of MK [1]: The same applied

Compound: N=C(N)NCCC[C@H](NC(=O)[C@H](Cc1ccccc1)NC(=O)[C@@H]1CCCN1C(=O)[C@H](CO)NC(=O)[C@H](Cc1ccccc1)NC(=O)CNC(=O)[C@@H]1CCCN1C(=O)[C@@H]1CCCN1C(=O)[C@H](CCCNC(=N)N)NC(=O)[C@@H]1CCCN1C(=O)CN)C(=O)O [Gly-Pro-BK] (H-GPRPPGFSPFR-OH)
- fragment generated from MK [2]: evidenced in a time-dependent manner; also recorded: metabolite that accumulates
- increase of fragment ion intensity on reaction with tissue [2]: 3-4 -fold

Compound: N=C(N)NCCC[C@H](NC(=O)[C@H](Cc1ccccc1)NC(=O)[C@@H]1CCCN1C(=O)[C@H](CO)NC(=O)[C@H](Cc1ccccc1)NC(=O)CNC(=O)[C@@H]1CCCN1C(=O)[C@@H]1CCCN1C(=O)[C@H](CCCNC(=N)N)NC(=O)[C@@H]1CCCN1C(=O)CNC(=O)[C@@H](N)CCCCN)C(=O)O [Lys-Gly-Pro-BK] (H-KGPRPPGFSPFR-OH)
- fragment generated from MK [2]: evidenced in a time-dependent manner; also recorded: major C-terminal metabolite
- increase of fragment ion intensity on reaction with tissue [2]: 3-4 -fold

Compound: C[C@H](N[C@@H](CCc1ccccc1)C(=O)O)C(=O)N1CCC[C@H]1C(=O)O [enalaprilat]
- Basal mean arterial blood pressure after pre-treatment (male Sprague-Dawley rats): 94.9 ± 4.6
- Basal heart rate after pre-treatment (male Sprague-Dawley rats): slight but significant increase in basal HR
- Basal heart rate after pre-treatment (male Sprague-Dawley rats; listed as Enalaprilat): 417 ± 13^*
- effect of pretreatment on hypotensive effect of MK (male Sprague-Dawley rats; pyrilamine 5 mg/kg i.v.): not significantly potentiated

Compound: CC(=O)N[C@@H](CC(C)C)C(=O)N[C@@H](CC(C)C)C(=O)N[C@H](C=O)CCCNC(=N)N [leupeptin]
- effect of protease/peptidase inhibitor on contractile potency of MK ([1]; inhibitor 30 min before MK): The same applied

Compound: O=C(N[C@H]1CCS[C@H]2CCC[C@@H](C(=O)O)N2C1=O)[C@@H](S)Cc1ccccc1 [omapatrilat]
- effect of protease/peptidase inhibitor on contractile potency of MK ([1]; inhibitor 30 min before MK): failed to modify the contractile effect of MK

Compound: Cl.NCCc1ccc(S(=O)(=O)F)cc1 [pefabloc SC]
- effect of protease/peptidase inhibitor on contractile potency of MK ([1]; inhibitor 30 min before MK): failed to change the concentration-effect curve of MK

Compound: COc1ccc(CN(CCN(C)C)c2ccccn2)cc1 [pyrilamine]
- effect of receptor antagonist on MK-induced contraction ([1]; antagonist 1 µM, 30 min before MK): did not reduce the venous effect of MK
- effect of antagonist on histamine-induced contraction ([1]; antagonist 1 µM, 30 min before histamine): profoundly and competitively inhibiting
- Basal mean arterial blood pressure after pre-treatment (male Sprague-Dawley rats): 87.4 ± 2.7
- Basal heart rate after pre-treatment (male Sprague-Dawley rats): 335 ± 6.1
- effect of pretreatment on hypotensive effect of MK (male Sprague-Dawley rats; pyrilamine 5 mg/kg i.v.): did not antagonize the effects of MK
- effect of pretreatment on hypotensive effect of histamine (male Sprague-Dawley rats; pyrilamine 5 mg/kg i.v., histamine 6.4 µg/kg i.v.): abated the hypotensive effect of histamine

Compound: DLPKINRKGPRPP [N-terminal fragment of MK]
- fragment generated from MK [2]: Abundant

Compound: DLPKINRKGPRPPGF [N-terminal fragment of MK]
- fragment generated from MK [2]: Abundant
